# Assay results taken from US6875760B2 (Novo Nordisk A/S, priority 1999, dated 2005).
# Target: T1, human glucagon receptor (Homo sapiens, UniProt P47871)
# T1 construct: expressed in transfected cells; host or cells: BHK (baby hamster kidney) cells
# Assay: Glucagon Binding Assay (III)
# Settings: BHK cell membranes, WGA SPA beads, 125I-glucagon; read-out: Glu Bd Assay (III) IC50
# Protocol: BHK (baby hamster kidney cell line) cells were transfected with the human glucagon receptor and a membrane preparation of the cells was prepared.
# All steps in the membrane preparation were kept on ice or performed at 4° C. BHK cells were harvested and centrifuged. […] The pellet was resuspended in homogenisation buffer, homogenised 2×10 sec (Polytron) and additional homogenisation buffer was added. […] (Polytron).
# The glucagon binding assay was carried out in opti plates (Polystyrene Microplates, Packard). […] Finally 50 μL WGA beads containing 1 mg beads were transferred to the well. The assay was incubated for 4 hours on a shaker and then settled for 8-48 hours. The opti plates were counted in a Topcounter. Non-specific binding was determined with 500 nM of glucagon.
# T1 sequence (P47871 26-477): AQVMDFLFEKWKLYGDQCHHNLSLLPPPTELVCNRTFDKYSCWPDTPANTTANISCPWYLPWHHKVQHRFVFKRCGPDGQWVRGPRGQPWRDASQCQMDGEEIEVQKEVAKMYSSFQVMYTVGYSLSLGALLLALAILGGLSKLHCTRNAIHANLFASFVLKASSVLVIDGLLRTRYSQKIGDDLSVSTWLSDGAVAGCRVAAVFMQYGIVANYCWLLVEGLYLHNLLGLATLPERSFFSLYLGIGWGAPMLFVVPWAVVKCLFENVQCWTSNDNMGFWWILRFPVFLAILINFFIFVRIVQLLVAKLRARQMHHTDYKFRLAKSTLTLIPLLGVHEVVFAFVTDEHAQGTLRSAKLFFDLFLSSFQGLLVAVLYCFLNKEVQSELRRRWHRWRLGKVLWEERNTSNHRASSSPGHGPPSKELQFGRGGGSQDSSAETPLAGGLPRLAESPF
row,IC50 [nM],Structure (SMILES)
1,540,"CC(C)(C)C1CCC(N(Cc2ccc(C(=O)Nc3nn[nH]n3)cc2)C(=O)CCC(=O)c2ccc(Cl)cc2)CC1 (centres unmarked) [Example 540, 4-({(4-tert-Butylcyclohexyl)-[4-(4-chlorophenyl)-4-oxobutyryl]amino}methyl)-N-(2H-tetrazol-5-yl)benzamide]"
2,22,"O=C(Nc1nn[nH]n1)c1ccc(CN(C(=O)NCc2ccccc2-c2ccccc2)c2ccc(C3=CCCCC3)cc2)cc1 [Example 353, 4-[3-Biphenyl-2-ylmethyl-1-(4-cyclohex-1-enylphenyl)ureidomethyl]-N-(2H-tetrazol-5-yl)benzamide]"
3,101,CCC(C)c1ccc(N(Cc2ccc(C(=O)Nc3nn[nH]n3)cc2)C(=O)Nc2cc(C(=O)OC)cc(C(=O)OC)c2)cc1 (centres unmarked) [Example 290]
4,217,"O=C(Nc1nn[nH]n1)c1ccc(CN(C(=O)/C=C/c2ccccc2Br)c2ccc(C3CCCCC3)cc2)cc1 [Example 501, 4-{[[3-(2-Bromophenyl)acryloyl]-(4-cyclohexylphenyl)amino]methyl}-N-(2H-tetrazol-5-yl)benzamide]"
5,96,"CC(C)(C)c1ccc(N(Cc2ccc(C(=O)NCCC(=O)O)cc2)C(=O)Nc2ccc(OC(F)(F)F)cc2)cc1 [Example 373, 3-{4-[1-(4-tert-Butylphenyl)-3-(4-trifluoromethoxyphenyl)ureidomethyl]benzoylamino}propionic acid]"
6,536,"O=C(O)CCNC(=O)c1ccc(CN(Cc2cc(Cl)cc(Cl)c2)NC(=O)c2ccc(OC(F)(F)F)cc2)cc1 [Example 422, 3-{4-[N-(3,5-Dichlorobenzyl)-N′-(4-trifluoromethoxybenzoyl)hydrazinomethyl]benzoylamino}propionic acid]"
7,604,"O=C(Nc1nn[nH]n1)c1ccc(CN(C(=O)/C=C/c2ccccc2Cl)c2ccc(N3CCCCC3)cc2)cc1 [Example 555, 4-{[[3-(2-Chlorophenyl)acryloyl]-(4-piperidin-1-ylphenyl)amino]methyl}-N-(2H-tetrazol-5-yl)benzamide]"
8,7,"CCCCN1C(=O)c2ccc(NC(=O)N(Cc3ccc(C(=O)Nc4nn[nH]n4)cc3)c3ccc(C4=CCCCC4)cc3)cc2C1=O [Example 625, 4-[3-(N′-Butylphthalimid-4-yl)-1-(4-cyclohex-1-enylphenyl)ureidomethyl]-N-(2H-tetrazol-5-yl)benzamide]"
9,266,"CCOC(=O)c1ccc2nc(NC(=O)N(Cc3ccc(C(=O)NCCC(=O)O)cc3)[C@H]3CC[C@H](C(C)(C)C)CC3)sc2c1 [Example 254, 2-{3-(4-trans-tert-Butylcyclohexyl)-3-[4-(2-carboxyethylcarbamoyl)benzyl]ureido}benzothiazole-6-carboxylic acid ethyl ester]"
10,372,"O=C(O)CCNC(=O)c1ccc(CN(C(=O)c2cc3cc(Cl)ccc3o2)c2ccc(C3CCCCC3)cc2)cc1 [Example 561, 3-(4-{[(5-Chlorobenzofuran-2-carbonyl)-(4-cyclohexylphenyl)amino]methyl}benzoylamino)propionic acid]"
11,410,"CC(C)(C)C1CCC(N(Cc2ccc(C(=O)NCCC(=O)O)cc2)NC(=O)c2cc(C(F)(F)F)cc(C(F)(F)F)c2)CC1 (centres unmarked) [Example 428, 3-{4-[N′-(3,5-Bis(trifluoromethyl)benzoyl)-N-(4-tert-butylcyclohexyl)hydrazinomethyl]benzoylamino}propionic acid]"
12,32,"CC(C)(C)[Si](C)(C)OCc1cc(NC(=O)N(Cc2ccc(C(=O)Nc3nn[nH]n3)cc2)c2ccc(C3CCCCC3)cc2)ccc1OC(F)(F)F [Example 311, 4-[3-[3-(tert-Butyldimethylsilanyloxymethyl)-4-trifluoromethoxyphenyl]-1-(4-cyclohexylphenyl)ureidomethyl]-N-(2H-tetrazol-5-yl)benzamide]"
13,75,"CCCCc1ccc(N(Cc2ccc(C(=O)Nc3nn[nH]n3)cc2)C(=O)Nc2cccc([N+](=O)[O-])c2)cc1 [Example 288, 4-[1-(4-Butylphenyl)-3-(3-nitrophenyl)ureidomethyl]-N-(2H-tetrazol-5-yl)benzamide]"
14,73,"CC(C)N1C(=O)c2ccc(NC(=O)N(Cc3ccc(C(=O)NCCC(=O)O)cc3)c3ccc(C(C)(C)C)cc3)cc2C1=O [Example 630, 3-{4-[1-(4-tert-Butylphenyl)-3-(N′-isopropylphthalimid-4-yl)ureidomethyl]benzoylamino}propionic acid]"
15,302,"CSc1cccc(O)c1C(=O)N(Cc1ccc(C(=O)Nc2nn[nH]n2)cc1)c1ccc(C2CCCCC2)cc1 [Example 482, 4-{[(4-Cyclohexylphenyl)-(2-hydroxy-6-methylsulfanylbenzoyl)amino]methyl}-N-(2H-tetrazol-5-yl)benzamide]"
16,83,"COC(=O)CCNC(=O)c1ccc(CN(C(=O)Nc2ccc(OC(F)(F)F)cc2)[C@H]2CC[C@H](C(C)(C)C)CC2)cc1 [Example 98, 3-{4-[1-(trans-4-tert-Butylcyclohexyl)-3-(4-trifluoromethoxyphenyl)ureidomethyl]benzoylamino}propionic acid methyl ester]"
17,140,"O=C(Nc1nn[nH]n1)c1ccc(CN(C(=O)/C=C/c2ccccc2Cl)c2ccc(C3CCCCC3)cc2)cc1 [Example 500, 4-{[[3-(2-Chlorophenyl)acryloyl]-(4-cyclohexylphenyl)amino]methyl}-N-(2H-tetrazol-5-yl)benzamide]"
18,1500,"CC(C)(C)C1CCC(N(Cc2ccc(C(=O)Nc3nn[nH]n3)cc2)C(=O)c2cc3ccccc3s2)CC1 (centres unmarked) [Example 473, Benzo[b]thiophene-2-carboxylic acid (4-tert-butylcyclohexyl)-[4-(2H-tetrazol-5-ylcarbamoyl)benzyl]amide]"
19,797,"COc1ccc(NC(=O)N(Cc2ccc(C(=O)Nc3nn[nH]n3)cc2)c2ccc(C(C)(C)C)cc2)cc1S(C)(=O)=O [Example 339, 4-[1-(4-tert-Butylphenyl)-3-(3-methylsulfonyl-4-methoxyphenyl)ureidomethyl]-N-(2H-tetrazol-5-yl)benzamide]"
20,37,"CCC(C)(C)C1CCC(N(Cc2ccc(C(=O)NCCC(=O)O)cc2)NC(=O)c2ccc(OC(F)(F)F)cc2)CC1 (centres unmarked) [Example 423, 3-{4-[N-[4-(1,1-Dimethylpropyl)cyclohexyl]-N′-(4-trifluoromethoxybenzoyl)hydrazinomethyl]benzoylamino}propionic acid]"
21,1110,"CCCCC(CC)CN(Cc1ccc(C(=O)NCCC(=O)O)cc1)C(=O)Nc1ccc(C(C)C)cc1 (centres unmarked) [Example 43, 3-{4-[1-(2-Ethylhexyl)-3-(4-isopropylphenyl)ureidomethyl]benzoylamino}propionic acid]"
22,368,"O=C(Nc1nn[nH]n1)c1ccc(CN(C(=O)Nc2ccccc2OC(F)(F)F)c2ccc(C3=CCCCC3)cc2)cc1 [Example 351, 4-[1-(4-Cyclohex-1-enylphenyl)-3-(2-trifluoromethoxyphenyl)ureidomethyl]-N-(2H-tetrazol-5-yl)benzamide]"
23,90,"CC(C)(C)C1CCC(N(Cc2ccc(C(=O)NCCC(=O)O)cc2)C(=O)Nc2ccc(Oc3ccccc3)cc2)CC1 (centres unmarked) [Example 57, 3-{4-[1-(4-tert-Butylcyclohexyl)-3-(4-phenoxyphenyl)ureidomethyl]benzoylamino}propionic acid]"
24,2490,"CC(C)(C)C1CCC(N(Cc2ccc(C(=O)Nc3nn[nH]n3)cc2)C(=O)c2cccc3[nH]ccc23)CC1 (centres unmarked) [Example 516, 4-{[(4-tert-Butylcyclohexyl)-(1H-indol-4-ylcarbonyl)amino]methyl}-N-(2H-tetrazol-5-yl)benzamide]"
25,207,"O=C(O)CCNC(=O)c1ccc(CN(C(=O)Nc2ccc(OC(F)(F)F)cc2)c2ccc(C(F)(F)F)cc2)cc1 [Example 437, 3-{4-[3-(4-Trifluoromethoxyphenyl)-1-(4-trifluoromethylphenyl)ureidomethyl]benzoylamino}propionic acid]"
26,144,"O=C(Nc1nn[nH]n1)c1ccc(CN(C(=O)Cc2cccc(OC(F)(F)F)c2)c2ccc(C3CCCCC3)cc2)cc1 [Example 492, 4-({(4-Cyclohexylphenyl)-[2-(3-trifluoromethoxyphenyl)acetyl]amino}methyl)-N-(2H-tetrazol-5-yl)benzamide]"
27,102,"O=C(Nc1nn[nH]n1)c1ccc(CN(C(=O)NCCc2ccccc2)c2ccc(C3CCCCC3)cc2)cc1 [Example 323, 4-[1-(4-Cyclohexylphenyl)-3-phenethylureidomethyl]-N-(2H-tetrazol-5-yl)benzamide]"
28,73,"O=C(Nc1nn[nH]n1)c1ccc(CN(C(=O)NCc2ccccc2OC(F)(F)F)c2ccc(C3CCCCC3)cc2)cc1 [Example 348, 4-[1-(4-Cyclohexylphenyl)-3-(2-trifluoromethoxybenzyl)ureidomethyl]-N-(2H-tetrazol-5-yl)benzamide]"

row,Structure (SMILES),IC50 [nM]
1,CC(C)(C)C1CCC(N(Cc2ccc(C(=O)Nc3nn[nH]n3)cc2)C(=O)Oc2ccc(S(C)(=O)=O)cc2)CC1 (centres unmarked) [Example 623],2700

# Same assay, conditions: Glu Bd Assay (III) IC50 (nM), BHK cell membranes, WGA SPA beads, 125I-glucagon
row,Structure (SMILES),IC50 [nM]
1,"CC(C)(C)[C@H]1CC[C@H](N(Cc2ccc(C(=O)NCC(=O)NO)cc2)C(=O)Nc2ccc(OC(F)(F)F)cc2)CC1 [Example 377, 4-[1-(trans-4-tert-Butylcyclohexyl)-3-(4-trifluoromethoxyphenyl)ureidomethyl]-N-hydroxycarbamomethyl-benzamide]",2960
2,"CCN(CC)C(=O)c1ccc(NC(=O)N(Cc2ccc(C(=O)NCCC(=O)O)cc2)[C@H]2CC[C@H](C(C)(C)C)CC2)cc1 [Example 240, 3-{4-[1-(trans-4-tert-Butylcyclohexyl)-3-(4-diethylcarbamoylphenyl)ureidomethyl]benzoylamino}propionic acid]",2430
3,"CC(C)(C)C1CCC(N(Cc2ccc(C(=O)NCCC(=O)O)cc2)C(=O)Nc2ccc(C#N)cc2)CC1 (centres unmarked) [Example 99, 3-{4-[1-(4-tert-Butylcyclohexyl)-3-(4-cyanophenyl)ureidomethyl]benzoylamino}propionic acid]",1050
